Oligonucleotides are written 5' to 3', each unit as a sugar letter and its base; * is a phosphorothioate linkage, no mark a phosphodiester; rarer units and linkages stand in square brackets, end groups in braces. Plain capitals give the bases only. k = constrained ethyl (cEt); [5mC] = 5-methylcytosine; d = 2'-deoxy (DNA)
Key:
AR mRNA [1] = assay: Antisense inhibition of human AR in HuVEC cells, single concentration (electroporation, qRT-PCR RTS3559); format: cell-based; conditions: electroporation, approximately 24 hours, relative to untreated control
In short: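 AR mRNA levels were measured with human primer-probe set RTS3559 and adjusted for total RNA (RIBOGREEN). Cells were HuVEC, with each antisense oligonucleotide delivered by electroporation at one concentration.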

AR mRNA [2] = assay: AR mRNA in liver, heart, skeletal muscle, kidney, prostate of cynomolgus monkeys; format: in vivo; conditions: cynomolgus monkey, 40 mg/kg subcutaneously; for Percent Inhibition of AR mRNA relative to the PBS control, Heart: weeks 1 to 6, Heart; for Percent Inhibition of AR mRNA relative to the PBS control, Kidney: weeks 1 to 6, Kidney; for Percent Inhibition of AR mRNA relative to the PBS control, Liver: weeks 1 to 6, Liver; for Percent Inhibition of AR mRNA relative to the PBS control, Prostate: weeks 1 to 6, Prostate; for Percent Inhibition of AR mRNA relative to the PBS control, Skeletal Muscle: weeks 1 to 6, Skeletal Muscle
Method: Cynomolgus monkeys were treated with ISIS antisense oligonucleotides selected from studies described above. Antisense oligonucleotide efficacy and tolerability were evaluated. The human antisense oligonucleotides tested are cross-reactive with the rhesus genomic sequence (GENBANK Accession No. NW_001218131.1 truncated from nucleotides 134001 to 308000 and designated herein as SEQ ID NO: 189). The target start site and target region of each oligonucleotide to SEQ ID NO: 189, as well as the details of their chemistry and sequence, is presented in Table 133.
RNA was extracted from liver, heart, skeletal muscle, kidney, and prostate tissues for real-time PCR analysis of AR using primer probe set RTS3559. The results were normalized to RIBOGREEN®. Results are presented as percent inhibition of AR mRNA, relative to PBS control.

AR mRNA [3] = assay: AR mRNA in LnCaP cells by free uptake (hAR_LTS00943); format: cell-based, human; conditions: 24 hrs
Method: Cells were plated at a concentration of 4,000 cells/well in 96-well plates. ISIS oligonucleotides, specified in Table 68, were added individually at 0.02 μM, 0.10 μM, 0.50 μM, 2.50 μM, or 10.00 μM. After an incubation period of 24 hrs, mRNA levels were measured using primer probe set hAR_LTS00943.

AR mRNA [4] = assay: Dose-dependent antisense inhibition of human AR in HuVEC cells (electroporation, qRT-PCR RTS3559, IC50); format: cell-based; conditions: HuVEC, electroporation, approximately 16 hours
In short: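 HuVEC cells dosed with antisense oligonucleotides by electroporation and treated approximately 16 hours. AR mRNA quantified by real-time qPCR with primer probe set RTS3559 and normalised to total RNA by RIBOGREEN; IC50 from dose-response.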

[5] = Table 24, 1,000 nM oligonucleotide

| Substance | % inhibition (AR mRNA [1]; [5]) | Percent Inhibition of AR mRNA relative to the PBS control, Heart (AR mRNA [2]) | Percent Inhibition of AR mRNA relative to the PBS control, Kidney (AR mRNA [2]) | Percent Inhibition of AR mRNA relative to the PBS control, Liver (AR mRNA [2]) | Percent Inhibition of AR mRNA relative to the PBS control, Prostate (AR mRNA [2]) | Percent Inhibition of AR mRNA relative to the PBS control, Skeletal Muscle (AR mRNA [2]) | Percent inhibition of AR mRNA (AR mRNA [3]; 0.02 μM) | Percent inhibition of AR mRNA (AR mRNA [3]; 0.1 μM) | Percent inhibition of AR mRNA (AR mRNA [3]; 0.5 μM) | Percent inhibition of AR mRNA (AR mRNA [3]; 10 μM) | percent inhibition of AR, 46.9 nM (AR mRNA [4]; Table 35) | percent inhibition of AR, 187.5 nM (AR mRNA [4]; Table 35) | percent inhibition of AR, 750.0 nM (AR mRNA [4]; Table 35) | percent inhibition of AR, 3000.0 nM (AR mRNA [4]; Table 35) | IC50 (AR mRNA [4]; Table 35) | percent inhibition of AR, 46.9 nM (AR mRNA [4]; Table 36) | percent inhibition of AR, 187.5 nM (AR mRNA [4]; Table 36) | percent inhibition of AR, 750.0 nM (AR mRNA [4]; Table 36) | percent inhibition of AR, 3000.0 nM (AR mRNA [4]; Table 36) | IC50 (AR mRNA [4]; Table 36) | other results |
| --- | --- | --- | --- | --- | --- | --- | --- | --- | --- | --- | --- | --- | --- | --- | --- | --- | --- | --- | --- | --- | --- |
| 584149 (kG*kT*k[5mC]*dA*dA*dT*dA*dT*d[5mC]*dA*dA*dA*dG*k[5mC]*kA*k[5mC]) [compound 584149] | 85% | 33% | 77% | 93% | 45% | 63% | 0% | 0% | 0% | 39% | 11% | 37% | 68% | 89% | 310 nM | – | – | – | – | – | – |
| 584163 (kG*kA*kA*d[5mC]*dA*dT*dT*dA*dT*dT*dA*dG*dG*k[5mC]*kT*kA) [compound 584163] | 81% | 53% | 90% | 98% | 58% | 73% | 0% | 0% | 19% | 70% | 19% | 37% | 74% | 90% | 250 nM | – | – | – | – | – | – |
| 584269 (k[5mC]*k[5mC]*kT*dT*dA*dT*dG*dG*dA*dT*dG*d[5mC]*dT*kG*k[5mC]*kT) [compound 584269] | – | 72% | 92% | 96% | 41% | 76% | 0% | 0% | 0% | 23% | – | – | – | – | – | 6% | 26% | 69% | 92% | 340 nM | % inhibition (AR mRNA [1]; Table 25, 1,000 nM oligonucleotide): 57% |
| 584468 (k[5mC]*kA*kT*dT*dG*dT*dA*d[5mC]*dT*dA*dT*dG*d[5mC]*k[5mC]*kA*kG) [compound 584468] | – | 33% | 88% | 97% | 50% | 53% | 0% | 0% | 10% | 73% | – | – | – | – | – | 9% | 26% | 60% | 90% | 370 nM | % inhibition (AR mRNA [1]; Table 27, 1,000 nM oligonucleotide): 64% |
